Values belong to the compound of their own block, whether it stands above or below them.
Key:
F508del-CFTR [1] = target: T1, F508del-CFTR (Homo sapiens, UniProt P13569, DEL508-508); assay: Pharmacochaperone trafficking assay: F508del-CFTR cell surface expression in U2OS cells; type: cell-based; set-up: host or cells: U2OS (PathHunter U2OS-F508del-CFTR MEM-EA)
Procedure: This assay was adapted from the DiscoverX PathHunter pharmacochaperone trafficking assay, which is based on the enzyme fragment complementation technique. Briefly, the U2OS-F508del-CFTR cell line (DiscoveRx, #93-0987C3) is engineered to coexpress (i) human F508del-CFTR tagged with a Prolink (PK = short β-galactosidase fragment) and (ii) the remainder of the β-galactosidase enzyme [enzyme acceptor (EA)] localized to the PM. Incubation with compounds that increase trafficking of PK-tagged F508del-CFTR to the PM will lead to complementation of the EA fragment to form a functional β-galactosidase enzyme, which is quantified by a chemiluminescence reaction reporting cell surface CFTR expression. The same principle applies to the counterscreen using U2OS-ADRB2(W158A) cells (DiscoveRx, #93-0986C3). Freshly thawed U2OS-F508del-CFTR and U2OS-ADRB2(W158A) were seeded at 3500 or 5000 cells per well, respectively, in 20 μl per well of cell assay medium [McCoy (Life Technologies), 10% FBS, penicillin (100 U/ml), and streptomycin ([…])] in a 384 white low-volume plate (Corning). Predilutions of compounds in dimethyl sulfoxide (DMSO) were prepared in a 384-well polypropylene plate using an automated liquid-handling system. Dilution series were then transferred into cell assay medium in a polypropylene 384-well plate (Greiner) to obtain 5× concentrated aqueous working stocks. Five hours after cell seeding, 5× working stocks (5 μl per well) were added to the cells (20 μl per well) for an incubation overnight at 37°C. The next day, after 2 hours at room temperature, the cell plates were incubated with 10 μl of Flash detection reagent (#93-0247, DiscoverX) for 30 min, and chemiluminescence signals were detected with a microplate reader (Synergy MX, Agilent BioTek). Chemiluminescence data were normalized to the signal of basal vehicle-treated cells, and mean chemiluminescence values were converted to concentration-response curves for determination of EC50 and Emax values (GraphPad Prism).
Both above described cell lines [U2OS-F508del-CFTR and U2OS-ADRB2(W158A)] and assays were also used in the high-throughput screening campaign in which compounds were tested at 10 μM concentration with LUM (3 μM) or propranolol (100 nM) serving as 100% controls.

[2] = target: T2, MSD2-NBD2 fragment (M837-L1480-CFTR) (Homo sapiens, UniProt P13569); assay: Truncated CFTR construct levels (immunoblotting), MSD2-NBD2 fragment; type: cell-based; conditions: HEK-TREx cells, 40 hours; C4a 10 μM
T2 construct: expressed in transfected cells; host or cells: T-REx HEK293
T2 sequence (P13569 837-1480): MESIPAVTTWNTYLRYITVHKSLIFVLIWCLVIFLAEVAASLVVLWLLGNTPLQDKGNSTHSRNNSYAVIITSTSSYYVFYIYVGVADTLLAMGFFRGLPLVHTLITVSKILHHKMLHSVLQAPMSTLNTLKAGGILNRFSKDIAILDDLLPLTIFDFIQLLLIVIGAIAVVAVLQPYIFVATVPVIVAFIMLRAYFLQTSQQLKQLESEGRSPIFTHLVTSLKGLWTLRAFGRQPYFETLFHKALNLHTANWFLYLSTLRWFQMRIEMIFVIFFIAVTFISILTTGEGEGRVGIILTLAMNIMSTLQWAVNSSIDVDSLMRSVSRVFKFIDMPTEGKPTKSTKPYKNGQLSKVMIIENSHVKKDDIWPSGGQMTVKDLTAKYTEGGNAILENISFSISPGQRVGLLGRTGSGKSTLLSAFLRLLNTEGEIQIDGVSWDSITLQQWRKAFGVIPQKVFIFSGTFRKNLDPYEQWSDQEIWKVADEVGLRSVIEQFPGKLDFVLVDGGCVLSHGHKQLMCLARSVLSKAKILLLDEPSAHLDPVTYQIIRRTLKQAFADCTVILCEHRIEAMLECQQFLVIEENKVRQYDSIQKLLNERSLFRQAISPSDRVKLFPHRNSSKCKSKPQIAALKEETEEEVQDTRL
Excerpt: (§1) The human CFTR expressing HEK cell pools with the mutations described below were generated by integrase-mediated homologous recombination of the CFTR sequence into the T-REx HEK293 background (Thermo Fisher Scientific). This expression system allows the tetracycline-inducible expression of genes of interest from one defined insertion site. Parental T-REx-HEK293 cells were cultivated in growth medium: Dulbecco’s modified Eagle’s medium + GlutaMAX-I (#31966, Life Technologies), 10% dialyzed FBS (Gibco, #26400), penicillin (100 U/ml), streptomycin (100 μg/ml), hygromycin B (0.1 mg/ml; Life Technologies), blasticidin (5 μg/ml; Invitrogen, #R210-01), and 0.1 mM nonessential amino acid solution (Invitrogen, #11140-035). Recombinant T-REx-HEK-CFTR cells were generated by lipofectamine transfection (Life Technologies) of plasmids containing mutated versions of CFTR (RefSeq NM_000492) and then cultivated in selection medium [growth medium containing Geneticin (1 mg/ml) (Invitrogen, #10131-027) instead of hygromycin]. The plasmid constructs were synthetized by GENEART (Thermo Fisher Scientific) and designed with the WT CFTR intron 5 to 6 (880 nucleotides) to prevent leaky expression issues during the cloning process in bacteria. […]

CFTR = test system: CFTR; set-up: method as in earlier work; conditions: ref [27] (GLPG-2737); ref [21], [26], [27] (ELX); cited from earlier work
F508del-CFTR [3] = target: T1, F508del-CFTR; assay: Halide-sensitive YFP quenching assay in U2OS-F508del-CFTR-YFP cells; type: cell-based; set-up: host or cells: U2OS (PathHunter U2OS-F508del-CFTR MEM-EA)
Procedure: U2OS-F508del-CFTR cells expressing Topaz-YFP F46L/H148Q/I152L were seeded at 20,000 cells per well into 384-well black clear-bottom plates in 40 μl per well growth medium (Mc COY’s 5A, Gibco, 10% FBS, penicillin/streptomycin), containing the various CFTR correctors at the indicated concentrations. The cells were coincubated with the compounds for 24 hours (37°C, 5% CO2). The next day, plates were washed twice with PBS^+ (55 μl per well; PBS containing 0.9 mM Ca^2+ and 0.5 mM Mg^2+). PBS^+ was fully removed, and cells were supplemented with 15 μl PBS^+. Then, 5 μl of 4× concentrated stocks of IVA or vehicle in dilution buffer [PBS^+, 0.1 μM forskolin, and 0.2% bovine serum albumin (fatty acid free) (pH 7.4)] were added and incubated for 30 min in the dark. For experiments with I-172 (Sigma- Aldrich), the inhibitor was added to the mix with either IVA or vehicle to reach a final concentration in cells of 20 μM. Then, plates were transferred to the FLIPR Tetra (fluorescence imaging plate reader; Molecular Devices: excitation: 470 to 495 nm; emission: 526 to 585 nm), baseline fluorescence reading of the YFP signal was performed for 6 s (10 × 0.6 s intervals) after which 25 μl of iodide buffer [137 mM NaI, 2.7 mM KCl, 1.5 mM KH2PO4, 8.1 mM Na2HPO4, 1 mM CaCl2, and 0.5 mM MgCl2 (pH 7.4)] was added, and fluorescence reading was continued for 70 s (50 × 0.6 s intervals; 20 x 2 s intervals) to assess YFP quenching through CFTR-mediated iodide influx. For analysis, fluorescence traces were aligned and normalized at the last time point before iodide addition (normalized fluorescence = 1). Normalized fluorescence values obtained 20 s after the beginning of the assay were used to assess the degree of YFP quenching, i.e., CFTR function (see fig. S1J). […] Then, plates were read and analyzed as above. […] Then, plates were transferred to the FLIPR Tetra and read and analyzed as above.

F508del.L15W-CFTR = assay: Site-directed mutagenesis immunoblotting, HEK-TREx, F508del.L15W-CFTR; type: cell-based, human; conditions: 40 h, 2 μM
Excerpt: as §1

F508del.K14A-CFTR = assay: Site-directed mutagenesis immunoblotting, HEK-TREx, F508del.K14A-CFTR; type: cell-based, human; conditions: 40 h, 2 μM
Excerpt: as §1

[4] = U2OS cells, overnight treatment

T1 sequence (P13569 with tags, fused parts or gaps DEL508-508): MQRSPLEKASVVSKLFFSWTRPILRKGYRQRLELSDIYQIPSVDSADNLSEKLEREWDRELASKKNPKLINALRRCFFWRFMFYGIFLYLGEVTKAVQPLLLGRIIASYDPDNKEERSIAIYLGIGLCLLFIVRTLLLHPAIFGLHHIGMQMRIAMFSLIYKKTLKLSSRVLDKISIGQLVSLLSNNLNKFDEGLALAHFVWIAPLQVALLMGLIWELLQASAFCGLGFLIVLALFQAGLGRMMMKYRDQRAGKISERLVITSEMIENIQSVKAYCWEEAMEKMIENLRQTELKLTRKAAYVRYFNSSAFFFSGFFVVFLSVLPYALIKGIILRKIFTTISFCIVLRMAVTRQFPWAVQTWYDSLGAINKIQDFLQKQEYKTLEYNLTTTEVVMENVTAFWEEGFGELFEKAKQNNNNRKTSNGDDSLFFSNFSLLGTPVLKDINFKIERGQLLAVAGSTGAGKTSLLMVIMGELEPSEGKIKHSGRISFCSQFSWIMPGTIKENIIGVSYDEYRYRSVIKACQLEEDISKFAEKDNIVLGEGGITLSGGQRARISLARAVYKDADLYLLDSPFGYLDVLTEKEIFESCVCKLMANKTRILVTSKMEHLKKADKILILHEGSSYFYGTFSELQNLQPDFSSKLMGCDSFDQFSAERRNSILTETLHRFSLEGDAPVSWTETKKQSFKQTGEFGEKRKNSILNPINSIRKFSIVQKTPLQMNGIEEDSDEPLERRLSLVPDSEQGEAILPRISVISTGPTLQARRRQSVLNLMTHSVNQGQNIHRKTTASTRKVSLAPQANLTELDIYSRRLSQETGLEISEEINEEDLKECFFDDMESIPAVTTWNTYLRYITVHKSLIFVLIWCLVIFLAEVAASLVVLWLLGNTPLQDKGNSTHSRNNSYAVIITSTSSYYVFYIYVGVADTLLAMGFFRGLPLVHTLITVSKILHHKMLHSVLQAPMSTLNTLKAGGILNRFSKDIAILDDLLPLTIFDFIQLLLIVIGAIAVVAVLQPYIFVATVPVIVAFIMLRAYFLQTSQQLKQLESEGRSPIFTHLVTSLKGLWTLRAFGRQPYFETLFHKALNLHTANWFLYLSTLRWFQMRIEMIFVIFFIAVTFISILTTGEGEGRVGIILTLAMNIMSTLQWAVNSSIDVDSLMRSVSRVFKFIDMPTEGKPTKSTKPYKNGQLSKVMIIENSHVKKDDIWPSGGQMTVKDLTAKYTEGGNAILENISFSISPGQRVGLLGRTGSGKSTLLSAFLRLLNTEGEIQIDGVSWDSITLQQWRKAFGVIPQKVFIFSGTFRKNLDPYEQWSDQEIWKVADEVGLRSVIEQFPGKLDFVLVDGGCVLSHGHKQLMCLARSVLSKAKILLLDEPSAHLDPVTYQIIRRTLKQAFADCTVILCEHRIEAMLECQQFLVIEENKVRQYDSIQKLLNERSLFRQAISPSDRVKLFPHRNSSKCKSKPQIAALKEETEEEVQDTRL

maximal F508del-CFTR surface expression (Emax) (F508del-CFTR [1]; [4]): seven- to ninefold
Structure (SMILES): C[C@@H]1CN(c2nc(-n3ccc(OCCC4(C(F)(F)F)CC4)n3)ccc2C(=O)NS(=O)(=O)c2ccccc2)C(C)(C)C1 [BAM, bamocaftor]

maximal F508del-CFTR surface expression (Emax) (F508del-CFTR [1]; [4]): four- to fivefold
additivity in F508del-CFTR surface expression (F508del-CFTR [1]; applied on top of / titrated onto IDOR-4): full additivity or even synergy
Structure (SMILES): COc1ccc(Cl)cc1Nc1nc(-c2sc(NC(=O)c3ccccc3)nc2C)cs1 [C4a, corrector 4a]
expression of the MSD2-NBD2 fragment [2]: increased the expression of its glycosylated and nonglycosylated forms

maximal F508del-CFTR surface expression (Emax) (F508del-CFTR [1]; [4]): four- to fivefold
Structure (SMILES): O=C(O)c1ccc([C@H]2C[C@@H](NC(=O)C3(c4ccc5c(c4)OC(F)(F)O5)CC3)c3ccc(OC(F)F)cc3O2)cc1 [GAL, galicaftor]

Structure (SMILES): COC1CCN(C2CCN(c3cc(C(=O)NS(=O)(=O)N(C)C)nc4c3c(C3CCC3)nn4-c3ccc(F)cc3)CC2)CC1 [GLPG-2737]
acute effect on CFTR currents (CFTR): acute inhibitory

effect on corrector-induced YFP quenching responses (F508del-CFTR [3]; I-172 20 μM): blocked
Structure (SMILES): O=C(O)c1ccc(/C=C2\SC(=S)N(c3cccc(C(F)(F)F)c3)C2=O)cc1 [I-172]

Structure (SMILES): CC(C)CC1C(=O)N(C)CC(=O)NC(Cc2ccccc2)COc2ccccc2C(=O)NC(C(=O)NCCc2ccccc2)CC(=O)N1C (stereo not drawn) [IDOR-0]
EC50 (F508del-CFTR [1]; [4]): 1600 nM
maximal F508del-CFTR surface expression (Emax) (F508del-CFTR [1]; [4]): 3 fold over baseline

Structure (SMILES): COc1nc(C)cc2c1C(=O)NC(C(=O)NCCc1cccc(N=[N+]=[N-])c1)CC(=O)N(C)C(CC(C)C)C(=O)N(C)C(CC1CCCC1)C(=O)NC(Cc1ccccc1)CO2 (stereo not drawn) [IDOR-6A]
correction by macrocycles versus [LUM + BAM] (F508del.L15W-CFTR): little difference
weaker correction by macrocycles as compared to [LUM + BAM] (F508del.K14A-CFTR): two- to fourfold

EC80 of potentiator (F508del-CFTR [3]; concentration used as ~EC80): ~2 nM
Structure (SMILES): CC(C)(C)c1cc(C(C)(C)C)c(NC(=O)c2c[nH]c3ccccc3c2=O)cc1O [IVA, ivacaftor]

From article PMC11801377, “A uniquely efficacious type of CFTR corrector with complementary mode of action” (Science Advances, 2024)
